Key:
[1] = The drug is tested on Bifidobacterium longum subsp. Infantis strain: CCUG52486 for biotransformation. The drug concentrations were measured before and after a 12-h incubation by liquid-chromatography-coupled mass spectrometry (LC–MS); conditions: 2 µM
[2] = The drug is tested on Alistipes indistinctus strain: DSM22520 for biotransformation. The drug concentrations were measured before and after a 12-h incubation by liquid-chromatography-coupled mass spectrometry (LC–MS); conditions: 2 µM
[3] = The drug is tested on Bacteroides coprophilus strain: DSM18228 for biotransformation. The drug concentrations were measured before and after a 12-h incubation by liquid-chromatography-coupled mass spectrometry (LC–MS); conditions: 2 µM
[4] = The drug is tested on Bacteroides finegoldii strain: DSM17565 for biotransformation. The drug concentrations were measured before and after a 12-h incubation by liquid-chromatography-coupled mass spectrometry (LC–MS); conditions: 2 µM
[5] = The drug is tested on Bacteroides xylanisolvens strain: DSM18836 for biotransformation. The drug concentrations were measured before and after a 12-h incubation by liquid-chromatography-coupled mass spectrometry (LC–MS); conditions: 2 µM
[6] = The drug is tested on Anaerotruncus colihominis strain: DSM17241 for biotransformation. The drug concentrations were measured before and after a 12-h incubation by liquid-chromatography-coupled mass spectrometry (LC–MS); conditions: 2 µM
[7] = The drug is tested on Clostridium sp. strain: fecal isolate for biotransformation. The drug concentrations were measured before and after a 12-h incubation by liquid-chromatography-coupled mass spectrometry (LC–MS); conditions: 2 µM
[8] = The drug is tested on Dorea formicigenerans strain: ATCC27755 for biotransformation. The drug concentrations were measured before and after a 12-h incubation by liquid-chromatography-coupled mass spectrometry (LC–MS); conditions: 2 µM
[9] = The drug is tested on Ruminococcus gnavus strain: ATCC29149 for biotransformation. The drug concentrations were measured before and after a 12-h incubation by liquid-chromatography-coupled mass spectrometry (LC–MS); conditions: mediterraneibacter gnavus, 2 µM
[10] = The drug is tested on Ruminococcus torques strain: ATCC27756 for biotransformation. The drug concentrations were measured before and after a 12-h incubation by liquid-chromatography-coupled mass spectrometry (LC–MS); format: ADME; parameters: dose 2 uM, timepoint 0 vs 12 hours; conditions: 2 µM
[11] = The drug is tested on Enterobacter cancerogenus strain: ATCC35316 for biotransformation. The drug concentrations were measured before and after a 12-h incubation by liquid-chromatography-coupled mass spectrometry (LC–MS); conditions: 2 µM
[12] = bifidobacterium adolescentis, 12 h, 2 µM
Description: The drug is tested on Bifidobacterium adolescentis strain: ATCC 15703 for biotransformation. The drug concentrations were measured before and after a 12-h incubation by liquid-chromatography-coupled mass spectrometry (LC–MS)

[13] = bacteroides fragilis, 12 h, 2 µM
Description: The drug is tested on Bacteroides fragilis strain: 3397 (T10) for biotransformation. The drug concentrations were measured before and after a 12-h incubation by liquid-chromatography-coupled mass spectrometry (LC–MS)

[14] = bacteroides thetaiotaomicron, 12 h, 2 µM
Description: The drug is tested on Bacteroides thetaiotaomicron strain: VPI-5482 for biotransformation. The drug concentrations were measured before and after a 12-h incubation by liquid-chromatography-coupled mass spectrometry (LC–MS)

[15] = bacteroides thetaiotaomicron, 12 h, 2 µM; remark: listed apart in the source
Description: The drug is tested on Bacteroides thetaiotaomicron strain: 3731 for biotransformation. The drug concentrations were measured before and after a 12-h incubation by liquid-chromatography-coupled mass spectrometry (LC–MS)

[16] = bacteroides thetaiotaomicron, 12 h, 2 µM; remark: listed apart in the source
Description: The drug is tested on Bacteroides thetaiotaomicron strain: 7330 for biotransformation. The drug concentrations were measured before and after a 12-h incubation by liquid-chromatography-coupled mass spectrometry (LC–MS)

[17] = anaerostipes sp., 12 h, 2 µM
Description: The drug is tested on Anaerostipes sp. strain: fecal isolate for biotransformation. The drug concentrations were measured before and after a 12-h incubation by liquid-chromatography-coupled mass spectrometry (LC–MS)

[18] = roseburia intestinalis, 12 h, 2 µM
Description: The drug is tested on Roseburia intestinalis strain: L1-82 for biotransformation. The drug concentrations were measured before and after a 12-h incubation by liquid-chromatography-coupled mass spectrometry (LC–MS)

[19] = bacteroides intestinalis, 12 h, 2 µM
Description: The drug is tested on Bacteroides intestinalis strain: DSM17393 for biotransformation. The drug concentrations were measured before and after a 12-h incubation by liquid-chromatography-coupled mass spectrometry (LC–MS)

SMILES	Bacterial Biotransformation [1]	Bacterial Biotransformation [2]	Bacterial Biotransformation [3]	Bacterial Biotransformation [4]	Bacterial Biotransformation [5]	Bacterial Biotransformation [6]	Bacterial Biotransformation [7]	Bacterial Biotransformation [8]	Bacterial Biotransformation [9]	Bacterial Biotransformation [10]	Bacterial Biotransformation [11]	Bacterial Biotransformation [12]	Bacterial Biotransformation [13]	Bacterial Biotransformation [14]	Bacterial Biotransformation [15]	Bacterial Biotransformation [16]	Bacterial Biotransformation [17]	Bacterial Biotransformation [18]	Bacterial Biotransformation [19]
O=C1NCC2(CCN(CCc3ccccc3)CC2)O1 [FENSPIRIDE]	Compound NOT metabolized	Compound NOT metabolized	Compound metabolized	Compound NOT metabolized	Compound NOT metabolized	Compound NOT metabolized	Compound NOT metabolized	Compound NOT metabolized	Compound NOT metabolized	Compound NOT metabolized	Compound NOT metabolized	Compound NOT metabolized	Compound metabolized	Compound metabolized	Compound metabolized	Compound metabolized	Compound NOT metabolized	Compound NOT metabolized	
COc1ccc2c3c1O[C@H]1C[C@@H](O)C=C[C@@]31CCN(C)C2 [GALANTAMINE]		Compound metabolized	Compound metabolized		Compound metabolized	Compound NOT metabolized	Compound NOT metabolized	Compound NOT metabolized	Compound NOT metabolized	Compound NOT metabolized	Compound NOT metabolized	Compound NOT metabolized	Compound metabolized	Compound metabolized	Compound metabolized	Compound metabolized	Compound metabolized	Compound NOT metabolized	Compound NOT metabolized
Nc1nc(N)nc(-c2cc(Cl)ccc2Cl)n1.O=C(O)/C=C\C(=O)O [IRSOGLADINE MALEATE]		Compound NOT metabolized	Compound NOT metabolized	Compound NOT metabolized	Compound NOT metabolized	Compound NOT metabolized	Compound NOT metabolized	Compound NOT metabolized	Compound NOT metabolized	Compound NOT metabolized	Compound NOT metabolized	Compound NOT metabolized	Compound NOT metabolized	Compound NOT metabolized	Compound NOT metabolized	Compound NOT metabolized	Compound NOT metabolized	Compound NOT metabolized	Compound NOT metabolized
CC(=O)CCCCn1c(=O)c2c(ncn2C)n(C)c1=O [PENTOXIFYLLINE]	Compound NOT metabolized	Compound NOT metabolized	Compound NOT metabolized		Compound NOT metabolized	Compound NOT metabolized	Compound NOT metabolized	Compound NOT metabolized	Compound NOT metabolized	Compound NOT metabolized	Compound NOT metabolized	Compound NOT metabolized	Compound NOT metabolized	Compound NOT metabolized	Compound NOT metabolized	Compound NOT metabolized	Compound NOT metabolized	Compound NOT metabolized	Compound NOT metabolized

From ChEMBL document CHEMBL5303573, “Mapping human microbiome drug metabolism by gut bacteria and their genes” (Nature, 2019)
